≈ marks a conversion by molar mass, not a printed value. Where two headings read alike, the source gives them in different places.
Experiments:
[1] = Single-dose mouse pharmacokinetics of prodrugs with or without ABT; type: in vivo; settings: for AUC: male, CD-1, mouse, plasma, 26 mg/kg
Description: The area under the curve (AUC) was calculated from time zero to the time of the last measurable concentration. The active metabolite concentrations in plasma (APX001A, APX2039, APX2020, and APX2041) were determined by liquid chromatography-tandem mass spectrometry. PK parameters were determined using Phoenix WinNonlin (v7.0) software and a noncompartmental model.

C. neoformans [2] = experiment: Broth microdilution susceptibility testing (CLSI M27-A3); type: cell-based, Cryptococcus neoformans; settings: for MIC: Cryptococcus neoformans
Description: (§1) C. neoformans strains H99, DUMC 118.00, and DUMC 158.03 and C. gattii strains R272 and RSA-MW-3515 were obtained from Duke University. C. albicans 90028, A. fumigatus MYA3626, C. neoformans 14116, C. neoformans 76484, and the pathogenic Cryptococcus reference strains panel (ATCC MP-11) were obtained from the American Type Culture Collection (ATCC; Manassas, VA, USA). The ATCC MP-11 panel consists of strains representing eight molecular types and three subtypes of C. neoformans and C. gattii.
(§2) To establish the antimicrobial activity of the APX001A analogs, broth microdilution susceptibility testing was performed according to Clinical and Laboratory Standards Institute (CLSI) guidelines M27-A3 ([47]) for yeasts and M38-A2 for molds ([48]). APX001A and analogs were first diluted in DMSO to obtain intermediate dilutions. These were further diluted in microtiter plates to obtain a final concentration of 2 to 0.002 μg/ml. One microliter of DMSO was added to the no-drug control wells. The solutions were mixed on a plate shaker for 10 min, and the plates were incubated at 35°C for 40 to 48 h (C. albicans, A. fumigatus) and 72 h (C. neoformans). The minimum concentration that led to a 50% reduction in fungal growth compared to that for the control (determined with the aid of a reading mirror) was determined as the MIC for C. albicans and C. neoformans. The minimum concentration that led to the shortening of hyphae compared to the hyphal growth in DMSO control wells was determined as the minimum effective concentration (MEC) for A. fumigatus (as read for the echinocandins). The use of the MIC and MEC endpoints for APX001A (formerly E1210) against yeasts and molds, respectively, has been described previously ([19][–][21]). For the cryptococcal synergy studies, APX001A and APX2020 MIC values were read at 50% inhibition.

C. neoformans H99 = experiment: Microtiter checkerboard synergy with FLC; type: cell-based, Cryptococcus neoformans; settings: in combination with FLC, MIC read at 50% inhibition, synergy FICI < 0.5
Description: An important consideration for developing a new treatment for CM is the potential for inclusion in combination therapy. We evaluated the synergy of APX001A and APX2020 in combination with FLC using standard microtiter dilution techniques ([33]). […] Importantly, no antagonism was observed.
as §2, with “The use of the MIC and MEC endpoints for APX001A (formerly E1210) against yeasts and molds, respectively, has been described previously ([19][–][21]). For the cryptococcal synergy studies, APX001A and APX2020 MIC values were read at 50% inhibition.” left out

C. gattii = experiment: Broth microdilution susceptibility testing (CLSI M27-A3); type: cell-based; settings: Cryptococcus gattii
Description: as §1, §2

A. fumigatus MYA3626 = experiment: Broth microdilution susceptibility testing for molds (CLSI M38-A2); type: cell-based; settings: Aspergillus fumigatus, MYA3626; read-out: MIC or MEC for A. fumigatus MYA3626
Description: as §1, §2

C. albicans 90028 = experiment: Broth microdilution susceptibility testing (CLSI M27-A3); type: cell-based, Candida albicans; settings: Candida albicans, 90028; read-out: MIC, C. albicans 90028
Description: as §1, §2

[3] = system: FLC-susceptible and FLC-nonsusceptible/resistant strains of C. neoformans and C. gattii; experiment: Broth microdilution, summary over the 18-strain Cryptococcus collection; type: cell-based, Cryptococcus neoformans and Cryptococcus gattii; settings: 18 strains of C. neoformans and C. gattii
Description: as §2, with “The minimum concentration that led to the shortening of hyphae compared to the hyphal growth in DMSO control wells was determined as the minimum effective concentration (MEC) for A. fumigatus (as read for the echinocandins).” left out

C. neoformans [4] = system: C. neoformans; design: method as in PMID 23740727; settings: 46 strains of C. neoformans, global study; cited from earlier work

Structure (SMILES): Nc1ncccc1-c1cc(Cc2ccc(OCc3ccccc3)cc2)no1 [APX2020]
- Ratio of AUC with ABT/AUC without ABT, i.p. dosing ([1]; 26 mg/kg prodrug): 8.3
- Ratio of AUC with ABT/AUC without ABT, p.o. dosing ([1]; 26 mg/kg prodrug): 9.3
- AUC ([1]; intraperitoneal, AUC of analyte after 26 mg/kg prodrug, 100 mg/kg ABT orally 2 h before, read-out: Avg AUC resulting from 26-mg/kg dose, i.p. dosing + ABT): 35600 ± 28200 ng·h/mL
- AUC ([1]; ip, AUC of analyte after 26 mg/kg of the corresponding prodrug, male CD-1 mice, no ABT, read-out: Avg AUC resulting from 26-mg/kg dose, i.p. dosing): 4310 ± 960 ng·h/mL
- AUC ([1]; po, AUC of analyte after 26 mg/kg prodrug, 100 mg/kg ABT orally 2 h before, read-out: Avg AUC resulting from 26-mg/kg dose, p.o. dosing + ABT): 41900 ± 6410 ng·h/mL
- AUC ([1]; po, AUC of analyte in plasma after 26 mg/kg of the corresponding prodrug, male CD-1 mice, no ABT, read-out: Avg AUC resulting from 26-mg/kg dose, p.o. dosing): 4490 ± 2320 ng·h/mL
- MIC (C. neoformans [2]; 72 h, Table 1, 50% growth inhibition for FLC, caspofungin and APX compounds, 100% for AMB, 72 h, read-out: MIC, C. neoformans H99): 0.031 µg/mL
- MIC (C. neoformans [2]; C. neoformans isolate 14116, read-out: MIC): 0.031 µg/mL
- MIC (C. neoformans [2]; C. neoformans isolate 76484, read-out: MIC): 0.063 µg/mL
- MIC (C. neoformans [2]; C. neoformans isolate DUMC 118.00 (FLC resistant), read-out: MIC): 0.063 µg/mL
- MIC (C. neoformans [2]; C. neoformans isolate DUMC 158.03 (FLC resistant), read-out: MIC): 0.25 µg/mL
- MIC (C. neoformans [2]; C. neoformans isolate MYA-4564, read-out: MIC): 0.063 µg/mL
- MIC (C. neoformans [2]; C. neoformans isolate MYA-4565, read-out: MIC): 0.25 µg/mL
- MIC (C. neoformans [2]; C. neoformans isolate MYA-4566, read-out: MIC): 0.125 µg/mL
- MIC (C. neoformans [2]; C. neoformans isolate MYA-4567, read-out: MIC): 0.063 µg/mL
- MIC (C. neoformans [2]; Table 2, C. neoformans isolate H99, read-out: MIC): 0.031 µg/mL
- fold improved anti-C. neoformans H99 activity vs APX001A (C. neoformans [2]; from MIC values of Table 1): 8 fold
- fractional inhibitory concentration index (FICI) (C. neoformans H99): 0.37
- MIC (C. gattii; C. gattii isolate MYA-4093, read-out: MIC): 0.125 µg/mL
- MIC (C. gattii; C. gattii isolate MYA-4094, read-out: MIC): 0.25 µg/mL
- MIC (C. gattii; C. gattii isolate MYA-4560 (first listing, r17), read-out: MIC): 0.063 µg/mL
- MIC (C. gattii; C. gattii isolate MYA-4560 (second listing, r21), read-out: MIC): 0.063 µg/mL
- MIC (C. gattii; C. gattii isolate MYA-4561, read-out: MIC): 0.125 µg/mL
- MIC (C. gattii; C. gattii isolate MYA-4562, read-out: MIC): 0.125 µg/mL
- MIC (C. gattii; C. gattii isolate MYA-4563, read-out: MIC): 0.125 µg/mL
- MIC (C. gattii; C. gattii isolate MYA-4877, read-out: MIC): 0.063 µg/mL
- MIC (C. gattii; C. gattii isolate RSA-MW-3615 (FLC resistant), read-out: MIC): 0.031 µg/mL
- MIC (C. gattii; Table 1, 50% growth inhibition for FLC, caspofungin and APX compounds, 100% for AMB, read-out: MIC, C. gattii WM276): 0.031 µg/mL
- MIC (A. fumigatus MYA3626): 0.031 µg/mL
- MIC (C. albicans 90028): 0.016 µg/mL
- MIC90 [3]: 0.25 µg/mL
- MIC ([3]; read-out: Geometric mean MIC): 0.085 µg/mL

Structure (SMILES): C[C@@H](c1nc(-c2ccc(C#N)cc2)cs1)[C@](O)(Cn1cncn1)c1cc(F)ccc1F [isavuconazole]
- MIC90 (C. neoformans [4]): 0.06 µg/mL (≈ 0.137 µM)
